Test results taken from patent US8952024B2, “Herbicidal pyrimidone derivatives” (E I du Pont de Nemours and Company, priority 2009, dated 2015).

Legend:
Experiment in all cases: Test B pre-/postemergence plant response
Type in all cases: in vivo
[1] = tested on: soybean (Glycine max)
Procedure, shortened: (§1)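 Visual injury, 0–100 scale (100 = complete control), rated against controls after 13 to 15 days in greenhouse. Pre-emergence: seeds in loam/sand soil, treated at planting. Post-emergence: 1- to 4-leaf plants (2 to 18 cm) in peat/vermiculite medium. Compounds formulated in non-phytotoxic solvent with surfactant.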

[2] = tested on: blackgrass (Alopecurus myosuroides)
Procedure, shortened: as §1

[3] = tested on: wheat (Triticum aestivum)
Procedure, shortened: as §1

[4] = tested on: large crabgrass (Digitaria sanguinalis)
Procedure, shortened: as §1

[5] = tested on: goosegrass (Eleusine indica)
Procedure, shortened: as §1

[6] = tested on: downy bromegrass (Bromus tectorum)
Procedure, shortened: as §1

[7] = tested on: ragweed (common ragweed, Ambrosia elatior)
Procedure, shortened: as §1

[8] = tested on: velvetleaf (Abutilon theophrasti)
Procedure, shortened: as §1

[9] = tested on: Italian ryegrass (Lolium multiflorum)
Procedure, shortened: as §1

[10] = tested on: corn (Zea mays)
Procedure, shortened: as §1

[11] = tested on: Surinam grass (Brachiaria decumbens)
Procedure, shortened: as §1

[12] = tested on: wild oat (Avena fatua)
Procedure, shortened: as §1

[13] = tested on: woolly cupgrass (Eriochloa villosa)
Procedure, shortened: as §1

[14] = tested on: pigweed (Amaranthus retroflexus)
Procedure, shortened: as §1

[15] = tested on: yellow nutsedge (Cyperus esculentus)
Procedure, shortened: as §1

[16] = tested on: lambsquarters (Chenopodium album)
Procedure, shortened: as §1

[17] = tested on: kochia (Kochia scoparia)
Procedure, shortened: as §1

[18] = tested on: johnsongrass (Sorghum halepense)
Procedure, shortened: as §1

[19] = 250 g ai/ha, Preemergence, 0 to 100 scale
[20] = Postemergence, 31 g ai/ha, scale 0 to 100 (0 no effect, 100 complete control)
[21] = Postemergence, 62 g ai/ha, scale 0 (no effect) to 100 (complete control), 13 to 15 days
[22] = Postemergence, 125 g ai/ha, visual rating after 13 to 15 days, scale 0 (no effect) to 100 (complete control)
[23] = Postemergence, 250 g ai/ha, scale 0 to 100
[24] = Preemergence, 31 g ai/ha, scale 0 to 100 (0 no effect, 100 complete control)
[25] = Preemergence, 62 g ai/ha, scale 0 to 100, 0 no effect, 100 complete control
[26] = Preemergence, 125 g ai/ha, 0 to 100 scale

Substance: 5-[(1-ethyl-5-hydroxy-1H-pyrazol-4-yl)carbonyl]-2-phenyl-3-(phenylmethyl)-4(3H)-pyrimidinone [Compound 20]
- Plant response rating, Soybean [1, 19]: 50
- Plant response rating, Soybean [1, 20]: 65
- Plant response rating, Soybean [1, 21]: 70
- Plant response rating, Soybean [1, 22]: 80
- Soybean plant response rating [1, 23]: 90
- Plant response rating, Soybean [1, 24]: 0
- Plant response rating, Soybean [1, 25]: 30
- Soybean plant response rating [1, 26]: 35
- Plant response rating, Blackgrass [2, 19]: 0
- Plant response rating, Blackgrass [2, 20]: 0
- Plant response rating, Blackgrass [2, 21]: 0
- Plant response rating, Blackgrass [2, 22]: 0
- Blackgrass plant response rating [2, 23]: 5
- Plant response rating, Blackgrass [2, 24]: 0
- Plant response rating, Blackgrass [2, 25]: 0
- Blackgrass plant response rating [2, 26]: 0
- Plant response rating, Wheat [3, 19]: 0
- Plant response rating, Wheat [3, 20]: 0
- Plant response rating, Wheat [3, 21]: 0
- Plant response rating, Wheat [3, 22]: 10
- Wheat plant response rating [3, 23]: 30
- Plant response rating, Wheat [3, 24]: 0
- Plant response rating, Wheat [3, 25]: 0
- Wheat plant response rating [3, 26]: 0
- Plant response rating, Crabgrass, Large [4, 19]: 100
- Plant response rating, Crabgrass, Large [4, 20]: 60
- Plant response rating, Crabgrass, Large [4, 21]: 70
- Plant response rating, Crabgrass, Large [4, 22]: 80
- Crabgrass, Large plant response rating [4, 23]: 90
- Plant response rating, Crabgrass, Large [4, 24]: 0
- Plant response rating, Crabgrass, Large [4, 25]: 70
- Crabgrass, Large plant response rating [4, 26]: 85
- Plant response rating, Goosegrass [5, 19]: 98
- Plant response rating, Goosegrass [5, 20]: 15
- Plant response rating, Goosegrass [5, 21]: 50
- Plant response rating, Goosegrass [5, 22]: 70
- Goosegrass plant response rating [5, 23]: 95
- Plant response rating, Goosegrass [5, 24]: 30
- Goosegrass plant response rating [5, 26]: 85
- Plant response rating, Bromegrass, Downy [6, 19]: 0
- Plant response rating, Bromegrass, Downy [6, 20]: 0
- Plant response rating, Bromegrass, Downy [6, 21]: 0
- Plant response rating, Bromegrass, Downy [6, 22]: 0
- Bromegrass, Downy plant response rating [6, 23]: 45
- Plant response rating, Bromegrass, Downy [6, 24]: 0
- Plant response rating, Bromegrass, Downy [6, 25]: 0
- Bromegrass, Downy plant response rating [6, 26]: 0
- Plant response rating, Ragweed [7, 19]: 90
- Plant response rating, Ragweed [7, 20]: 80
- Plant response rating, Ragweed [7, 21]: 85
- Plant response rating, Ragweed [7, 22]: 98
- Ragweed plant response rating [7, 23]: 100
- Plant response rating, Ragweed [7, 24]: 65
- Plant response rating, Ragweed [7, 25]: 65
- Ragweed plant response rating [7, 26]: 90
- Plant response rating, Velvetleaf [8, 19]: 100
- Plant response rating, Velvetleaf [8, 20]: 95
- Plant response rating, Velvetleaf [8, 21]: 100
- Plant response rating, Velvetleaf [8, 22]: 100
- Velvetleaf plant response rating [8, 23]: 100
- Plant response rating, Velvetleaf [8, 24]: 50
- Plant response rating, Velvetleaf [8, 25]: 90
- Velvetleaf plant response rating [8, 26]: 90
- Plant response rating, Ryegrass, Italian [9, 19]: 0
- Plant response rating, Ryegrass, Italian [9, 20]: 0
- Plant response rating, Ryegrass, Italian [9, 21]: 0
- Plant response rating, Ryegrass, Italian [9, 22]: 5
- Ryegrass, Italian plant response rating [9, 23]: 5
- Plant response rating, Ryegrass, Italian [9, 24]: 0
- Plant response rating, Ryegrass, Italian [9, 25]: 0
- Ryegrass, Italian plant response rating [9, 26]: 0
- Plant response rating, Corn [10, 19]: 5
- Plant response rating, Corn [10, 20]: 0
- Plant response rating, Corn [10, 21]: 0
- Plant response rating, Corn [10, 22]: 10
- Corn plant response rating [10, 23]: 15
- Plant response rating, Corn [10, 24]: 0
- Plant response rating, Corn [10, 25]: 0
- Corn plant response rating [10, 26]: 0
- Plant response rating, Surinam Grass [11, 19]: 5
- Plant response rating, Surinam Grass [11, 20]: 15
- Plant response rating, Surinam Grass [11, 21]: 25
- Plant response rating, Surinam Grass [11, 22]: 40
- Surinam Grass plant response rating [11, 23]: 65
- Plant response rating, Surinam Grass [11, 24]: 0
- Plant response rating, Surinam Grass [11, 25]: 0
- Surinam Grass plant response rating [11, 26]: 0
- Plant response rating, Oat, Wild [12, 19]: 0
- Plant response rating, Oat, Wild [12, 20]: 0
- Plant response rating, Oat, Wild [12, 21]: 0
- Plant response rating, Oat, Wild [12, 22]: 5
- Oat, Wild plant response rating [12, 23]: 50
- Plant response rating, Oat, Wild [12, 24]: 0
- Plant response rating, Oat, Wild [12, 25]: 0
- Oat, Wild plant response rating [12, 26]: 0
- Plant response rating, Cupgrass, Woolly [13, 19]: 10
- Plant response rating, Cupgrass, Woolly [13, 20]: 0
- Plant response rating, Cupgrass, Woolly [13, 21]: 15
- Plant response rating, Cupgrass, Woolly [13, 22]: 20
- Cupgrass, Woolly plant response rating [13, 23]: 55
- Plant response rating, Cupgrass, Woolly [13, 24]: 0
- Plant response rating, Cupgrass, Woolly [13, 25]: 0
- Cupgrass, Woolly plant response rating [13, 26]: 0
- Plant response rating, Pigweed [14, 19]: 95
- Plant response rating, Pigweed [14, 20]: 75
- Plant response rating, Pigweed [14, 21]: 90
- Plant response rating, Pigweed [14, 22]: 100
- Pigweed plant response rating [14, 23]: 100
- Plant response rating, Pigweed [14, 24]: 85
- Pigweed plant response rating [14, 26]: 90
- Plant response rating, Nutsedge, Yellow [15, 19]: 50
- Plant response rating, Nutsedge, Yellow [15, 20]: 15
- Plant response rating, Nutsedge, Yellow [15, 21]: 45
- Plant response rating, Nutsedge, Yellow [15, 22]: 65
- Nutsedge, Yellow plant response rating [15, 23]: 80
- Plant response rating, Nutsedge, Yellow [15, 24]: 5
- Plant response rating, Nutsedge, Yellow [15, 25]: 10
- Nutsedge, Yellow plant response rating [15, 26]: 40
- Plant response rating, Lambsquarters [16, 19]: 100
- Plant response rating, Lambsquarters [16, 20]: 85
- Plant response rating, Lambsquarters [16, 21]: 95
- Plant response rating, Lambsquarters [16, 22]: 98
- Lambsquarters plant response rating [16, 23]: 100
- Plant response rating, Lambsquarters [16, 24]: 100
- Lambsquarters plant response rating [16, 26]: 100
- Plant response rating, Kochia [17, 19]: 100
- Plant response rating, Kochia [17, 20]: 65
- Plant response rating, Kochia [17, 21]: 80
- Plant response rating, Kochia [17, 22]: 85
- Kochia plant response rating [17, 23]: 95
- Plant response rating, Kochia [17, 24]: 98
- Kochia plant response rating [17, 26]: 100
- Plant response rating, Johnsongrass [18, 19]: 10
- Plant response rating, Johnsongrass [18, 20]: 0
- Plant response rating, Johnsongrass [18, 21]: 0
- Johnsongrass plant response rating [18, 23]: 15
- Plant response rating, Johnsongrass [18, 24]: 0
- Plant response rating, Johnsongrass [18, 25]: 0
- Johnsongrass plant response rating [18, 26]: 0
